This is an account of results in US11447525B2 (NIIGATA UNIVERSITY, priority 2018, dated 2022).

Non-standard residues stand in square brackets, D forms with d. Residues, ends and D or L forms follow the SMILES beside them. No end group written: not given here. *: point of attachment. 5FAM = O=C1OC2(c3ccc(O)cc3Oc3cc(O)ccc32)c2ccc(C(=O)*)cc21; NMeR = CN[C@@H](CCCNC(=N)N)C(=O)O

The nature of the series: Degradation test by human blood plasma, MALDI-TOFMS analysis. It counts as in vitro ADME. The settings on record: for remaining at 5 min / remaining at 10 min / remaining at 20 min / remaining at 0.5 h / remaining at 1 h / remaining at 2 h: read-out: degradation resistance (proportion of the peptide retained without degradation); for proportion of peak area relative to the total peak area in the MALDI-TOFMS analysis: FAM-L peptide added to 50% by mass human blood plasma; for proportion of each peptide when the peak area for the two or more peptides is deemed to be 100%: Ld peptide added to 50% by mass human blood plasma. The procedure: Specifically, a peptide composed of the amino acid sequence represented by SEQ ID NO: 1 (hereafter sometimes referred to as “PCPP11”) was added to human blood plasma having a concentration of 50% by mass, the mixture was sampled immediately after starting the degradation test (after 0 minutes), and then after 5 minutes, after 10 minutes, after 20 minutes, after 30 minutes, after 60 minutes and after 120 minutes, and the samples were analyzed by MALDI-TOFMS (Matrix Assisted Laser Desorption/Ionization-Time Of Flight Mass Spectrometry). In Table 2, “UK” is an abbreviation for “unknown”. Further, the No. shown for each peptide in Table 2 corresponds with the numerical value recorded on the peaks of the graphs shown in FIG. 1.
Each of the peptides described above was added to human blood plasma having a concentration of 50% by mass, the resulting mixture was sampled immediately after starting the degradation test (after 0 minutes), and then after 5 minutes, after 10 minutes, after 20 minutes, after 30 minutes, after 60 minutes and after 120 minutes, and the samples were analyzed by MALDI-TOFMS. The results are shown in FIGS. 2 to 6 and Tables 4 to 6 shown below. Furthermore, the data for the degradation test by human blood plasma using PCPP11 from Reference Example 1 and the degradation tests by human blood plasma using each of the above peptides are collated in FIG. 7 and Table 7. The SEQ ID NO listed for the FAM-labeled peptide represents the SEQ ID NO of the peptide portion. Further, the No. shown for each peptide in Tables 4 to 6 corresponds with the numerical value recorded on the peaks of the graphs shown in FIGS. 2 to 6. In each table, in those cases where the numerical values are shown separated into an upper row and a lower row, the upper row value indicates the proportion (%) of peak area for two or more peptides relative to the total peak area in the MALDI-TOFMS analysis. On the other hand, the lower row value indicates the proportion (%) of each peptide when the peak area for the two or more peptides is deemed to be 100%. Moreover, for example, for the peptide No. 9 shown in Table 4, the left-side “70.0%” indicates the proportion (%) of the peptide No. 9 when the total peak area for the peptides No. 9 to 11 is deemed to be 100%, whereas the right-side “65%” indicates the proportion (%) of the peptide No. 9 relative to the total peak area in the MALDI-TOFMS analysis. This system is also used in the following tables.

[1] abbreviates: 50% by mass human blood plasma, 5 min.
Where [2] appears, read: 50% by mass human blood plasma, 10 min.
Where [3] appears, read: 50% by mass human blood plasma, 20 min.
The mark [4] stands for this setting: 50% by mass human blood plasma, 30 min.
Setting [5] is: 50% by mass human blood plasma, 60 min.
[6] abbreviates: 50% by mass human blood plasma, Start.
Setting [7] is: 50% by mass human blood plasma, 120 min.

For the molecule `C[C@H](O)[C@@H](NC(=O)[C@@H](Cc1c[nH]c2ccccc12)NC(=O)[C@@H](Cc1c[nH]cn1)NC(=O)[C@@H](CCCCN)NC(=O)[C@H]1CCCN1C(=O)CNC(=O)[C@@H]1CCCN1C(=O)[C@H](CCCCN)NC(=O)[C@H](Cc1c[nH]cn1)NC(=O)[C@H](Cc1c[nH]c2ccccc12)NC(=O)[C@@H](NC(=O)[C@@H](NC(=O)[C@@H]1CCCN1C(=O)[C@H](CCCNC(=N)N)NC(=O)[C@@H](N)CCCNC(=N)N)[C@@H](C)O)[C@@H](C)O)C(=O)N[C@@H](C(=O)N1CCC[C@@H]1C(=O)N[C@H](CCCNC(=N)N)C(=O)N[C@H](CCCNC(=N)N)C(=O)O)[C@H](C)O` [No. 15] (H-RRPTTWHKPG[dP][dK][dH][dW][dT][dT][dP][dR][dR]-OH; N-terminus and C-terminus assumed), for the setting “50% by mass human blood plasma”, the “degradation resistance compared with the stand-alone PCPP11 and the FAM-PCPP11” value is “superior degradation resistance”.
Same read-out and setting: with `C[C@@H](O)[C@H](NC(=O)[C@@H](NC(=O)[C@@H]1CCCN1C(=O)[C@H](CCCNC(=N)N)NC(=O)[C@H](CCCNC(=N)N)NC(=O)CNC(=O)[C@@H]1CCCN1C(=O)[C@H](CCCCN)NC(=O)[C@H](Cc1c[nH]cn1)NC(=O)[C@H](Cc1c[nH]c2ccccc12)NC(=O)[C@@H](NC(=O)[C@@H](NC(=O)[C@@H]1CCCN1C(=O)[C@H](CCCNC(=N)N)N(C)C(=O)[C@@H](N)CCCNC(=N)N)[C@@H](C)O)[C@@H](C)O)[C@@H](C)O)C(=O)N[C@@H](Cc1c[nH]c2ccccc12)C(=O)N[C@@H](Cc1c[nH]cn1)C(=O)N[C@@H](CCCCN)C(=O)N1CCC[C@H]1C(=O)O` [No. 18] (H-R[NMeR]PTTWHKPGRRPTTWHKP-OH; N-terminus and C-terminus assumed) the entry was “superior degradation resistance”.
Regarding `C[C@@H](O)[C@H](NC(=O)[C@@H](NC(=O)[C@@H]1CCCN1C(=O)[C@H](CCCNC(=N)N)NC(=O)[C@H](CCCNC(=N)N)NC(=O)c1ccc2c(c1)C(=O)OC21c2ccc(O)cc2Oc2cc(O)ccc21)[C@@H](C)O)C(=O)N[C@@H](Cc1c[nH]c2ccccc12)C(=O)N[C@@H](Cc1c[nH]cn1)C(=O)N[C@@H](CCCCN)C(=O)N1CCC[C@H]1C(=O)O` [compound 13] (5FAM-RRPTTWHKP-OH; C-terminus assumed), the remaining at 5 min under setting [1] came to 100%. Also, under setting [2], the remaining at 10 min turned out to be 90%. Further, the remaining at 20 min under setting [3] was found to be 92%. Besides, the remaining at 0.5 h under setting [4] was found to be 87%. For the same molecule, the remaining at 1 h under setting [5] was determined as 73%. For the same molecule, the “degradation resistance (proportion of the peptide retained without degradation)” value under setting [6] was 100%. For the same molecule, the “proportion of peak area relative to the total peak area in the MALDI-TOFMS analysis” value (5 min) worked out at 47.2%; the “proportion of peak area relative to the total peak area in the MALDI-TOFMS analysis” value (10 min) is on record as 43.2%; the “proportion of peak area relative to the total peak area in the MALDI-TOFMS analysis” value (20 min) stood at 45.6%; the “proportion of peak area relative to the total peak area in the MALDI-TOFMS analysis” value (30 min) worked out at 43.6%; the “proportion of peak area relative to the total peak area in the MALDI-TOFMS analysis” value (60 min) was determined as 37.4%; the “proportion of peak area relative to the total peak area in the MALDI-TOFMS analysis” value (120 min) amounted to 13.5%. Further, the “proportion of peak area relative to the total peak area in the MALDI-TOFMS analysis” value (Start) turned out to be 47.6%.
With `C[C@H](O)[C@@H](NC(=O)[C@@H](Cc1c[nH]c2ccccc12)NC(=O)[C@@H](Cc1c[nH]cn1)NC(=O)[C@@H](CCCCN)NC(=O)[C@H]1CCCN1C(=O)CNC(=O)[C@@H]1CCCN1C(=O)[C@H](CCCCN)NC(=O)[C@H](Cc1c[nH]cn1)NC(=O)[C@H](Cc1c[nH]c2ccccc12)NC(=O)[C@@H](NC(=O)[C@@H](NC(=O)[C@@H]1CCCN1C(=O)[C@H](CCCNC(=N)N)NC(=O)[C@@H](N)CCCNC(=N)N)[C@@H](C)O)[C@@H](C)O)C(=O)N[C@@H](C(=O)N1CCC[C@@H]1C(=O)N[C@H](CCCNC(=N)N)C(=O)N[C@H](CCCNC(=N)N)C(=O)O)[C@H](C)O` [compound 15] (H-RRPTTWHKPG[dP][dK][dH][dW][dT][dT][dP][dR][dR]-OH; N-terminus and C-terminus assumed), the remaining at 5 min under setting [1] is 100%. The remaining at 10 min under setting [2] was found to be 100%. The remaining at 20 min under setting [3] was 94%. For the same molecule, the remaining at 0.5 h under setting [4] was determined as 84%. Also, the remaining at 1 h under setting [5] was 58%. Under setting [7], the remaining at 2 h came out at 32%. In addition, under setting [6], the “degradation resistance (proportion of the peptide retained without degradation)” value was determined as 100%. For the same molecule, the “proportion of each peptide when the peak area for the two or more peptides is deemed to be 100%” value (“proportion of each peptide … to be 100%” below) (5 min) is given as “(89.0%)”; the “proportion of each peptide … to be 100%” value (10 min) is “(82.2%)”; the “proportion of each peptide … to be 100%” value (20 min) is given as “(71.9%)”; the “proportion of each peptide … to be 100%” value (30 min) was “(62.3%)”; the “proportion of each peptide … to be 100%” value (60 min) was “(43.0%)”; the “proportion of each peptide … to be 100%” value (120 min) is “(24.6%)”. Also, for the setting “Start”, the “proportion of each peptide … to be 100%” value was “(96.9%)”.
As for `C[C@@H](O)[C@H](NC(=O)[C@@H](NC(=O)[C@@H]1CCCN1C(=O)[C@H](CCCNC(=N)N)NC(=O)[C@H](CCCNC(=N)N)NC(=O)CNC(=O)[C@@H]1CCCN1C(=O)[C@H](CCCCN)NC(=O)[C@H](Cc1c[nH]cn1)NC(=O)[C@H](Cc1c[nH]c2ccccc12)NC(=O)[C@@H](NC(=O)[C@@H](NC(=O)[C@@H]1CCCN1C(=O)[C@H](CCCNC(=N)N)N(C)C(=O)[C@@H](N)CCCNC(=N)N)[C@@H](C)O)[C@@H](C)O)[C@@H](C)O)C(=O)N[C@@H](Cc1c[nH]c2ccccc12)C(=O)N[C@@H](Cc1c[nH]cn1)C(=O)N[C@@H](CCCCN)C(=O)N1CCC[C@H]1C(=O)O` [compound 18] (H-R[NMeR]PTTWHKPGRRPTTWHKP-OH; N-terminus and C-terminus assumed), under setting [1], the remaining at 5 min worked out at 100%. In addition, the remaining at 10 min under setting [2] was 100%. The remaining at 20 min under setting [3] was 100%. Further, the remaining at 0.5 h under setting [4] came out at 100%. For the same molecule, under setting [5], the remaining at 1 h is 100%. Further, the remaining at 2 h under setting [7] worked out at 100%. For the same molecule, the “degradation resistance (proportion of the peptide retained without degradation)” value under setting [6] is reported as 100%.
Consider `C[C@H](O)[C@@H](NC(=O)[C@@H](Cc1c[nH]c2ccccc12)NC(=O)[C@@H](Cc1c[nH]cn1)NC(=O)[C@@H](CCCCN)NC(=O)[C@H]1CCCN1C(=O)CNC(=O)[C@@H]1CCCN1C(=O)[C@H](CCCCN)NC(=O)[C@H](Cc1c[nH]cn1)NC(=O)[C@H](Cc1c[nH]c2ccccc12)NC(=O)[C@@H](NC(=O)[C@@H](NC(=O)[C@@H]1CCCN1C(=O)[C@H](CCCNC(=N)N)N(C)C(=O)[C@@H](N)CCCNC(=N)N)[C@@H](C)O)[C@@H](C)O)C(=O)N[C@@H](C(=O)N1CCC[C@@H]1C(=O)N[C@H](CCCNC(=N)N)C(=O)N[C@H](CCCNC(=N)N)C(=O)O)[C@H](C)O` [compound 19] (H-R[NMeR]PTTWHKPG[dP][dK][dH][dW][dT][dT][dP][dR][dR]-OH; N-terminus and C-terminus assumed), for which the remaining at 5 min under setting [1] amounted to 100%. For the same molecule, the remaining at 10 min under setting [2] was 100%. Also, the remaining at 20 min under setting [3] stood at 100%. In addition, the remaining at 0.5 h under setting [4] was 100%. Besides, the remaining at 1 h under setting [5] amounted to 100%. Further, the remaining at 2 h under setting [7] stood at 100%. Besides, the “degradation resistance (proportion of the peptide retained without degradation)” value under setting [6] is reported as 100%.
For the molecule RRPTTWHKP [No. 1, reference compound], where the note is “50% by mass human blood plasma”, the “persistence time (the time of stable existence)” value is “less than 20 minutes”.
With RRPTTWHKP [Peptide 1], the remaining at 10 min under setting [2] is 67%.
Regarding RRPTTWHKP [compound 1], under setting [1], the remaining at 5 min is 93%. In addition, the “degradation resistance (proportion of the peptide retained without degradation)” value under setting [6] is reported as 100%.
Turning to RRPTTWHKPGRRPTTWHKP [No. 9], the “degradation resistance compared with the stand-alone PCPP11 and the FAM-PCPP11” value (50% by mass human blood plasma) is given as “superior degradation resistance”.
